According to patent publication US20230416228A1 (Forkhead Biotherapeutics, Inc., priority 2020, published 2023):
pIC50: −log10 of the molar value.

Molecular target: T1, human FOXO1 (constitutively active form Thr24Ala, Ser256Ala, Ser319Ala) (Homo sapiens, UniProt Q12778, S256A/S319A/T24A)
T1 construct: expressed in transfected cells; host or cells: HEK293 cells transfected with pcDNA3.1 plasmid
Experiment: FOXO1 inhibitor activity assay: cell-based transcriptional (luciferase) reporter assay in HEK293 cells
Conditions: HEK293 cells transfected with insulin response element firefly luciferase reporter, FOXO1 and Renilla luciferase; 10-point dose response 50 μM to 2.5 nM; 24 hours
Method: The inhibitory activities of compounds on FOXO1 were determined by a cell-based transcriptional reporter assay. HEK293 cells were plated onto either 384-well poly-D-lysine coated plates (at 7500 cells per well) or 96-well plates (at 20000 cells per well) in low glucose Eagle's Minimum Essential Medium (EMEM) containing 1% fetal bovine serum, and incubated overnight at 37° C. and 5% CO2. […] Duplicate wells were included for each treatment condition. Cells were incubated for 24 hours at 37° C. and 5% CO2. Luciferase activities in each well were measured using Dual-Glog Luciferase Assay System (Promega) according to manufacturer's protocol and an Envision plate reader suitable for luminescence detection. Firefly luciferase activity was divided by Renilla luciferase activity to calculate a ratio for each well. The ratio in wells containing cells transfected with all 3 plasmids listed above and receiving only DMSO without compound addition was set to 100%. The ratio in wells containing cells transfected with plasmid (1), plasmid (3), and pcDNA3.1 containing the open reading frame of red fluorescent protein (instead of human FOXO1) and treated with DMSO was set to 0%. The ratio in each well receiving compound treatment was normalized and expressed as a percentage. Data were fit by 4-parameter logistic regression to determine IC50 and maximal inhibition values. Each compound was tested in a minimum of 2 independent experiments.

T1 sequence (Q12778 whole entry T24A/S256A/S319A): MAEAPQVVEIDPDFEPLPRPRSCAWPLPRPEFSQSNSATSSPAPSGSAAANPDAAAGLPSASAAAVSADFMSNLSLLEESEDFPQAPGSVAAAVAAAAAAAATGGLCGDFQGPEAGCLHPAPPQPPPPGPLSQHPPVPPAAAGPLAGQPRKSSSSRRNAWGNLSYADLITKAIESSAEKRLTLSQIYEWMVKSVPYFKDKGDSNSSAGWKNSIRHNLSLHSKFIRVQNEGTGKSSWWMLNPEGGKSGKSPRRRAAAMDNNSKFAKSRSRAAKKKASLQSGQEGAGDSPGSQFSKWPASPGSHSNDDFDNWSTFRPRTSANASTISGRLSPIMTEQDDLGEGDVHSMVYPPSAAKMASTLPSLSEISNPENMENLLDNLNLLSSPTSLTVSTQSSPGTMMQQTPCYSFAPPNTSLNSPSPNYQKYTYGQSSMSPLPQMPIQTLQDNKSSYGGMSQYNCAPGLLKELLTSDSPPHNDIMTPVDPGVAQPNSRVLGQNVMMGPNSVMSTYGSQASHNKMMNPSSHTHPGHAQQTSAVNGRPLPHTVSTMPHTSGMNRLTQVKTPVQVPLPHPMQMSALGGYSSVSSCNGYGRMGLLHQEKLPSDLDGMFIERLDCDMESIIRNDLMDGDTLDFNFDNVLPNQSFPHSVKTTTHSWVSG

| pIC50 | SMILES |
| --- | --- |
| > 7.00 | CC1CN(c2ccc(C(=O)Nc3cc(-c4nc5ccccc5[nH]4)n(C)n3)cn2)CC(CO)O1 (single isomer, unassigned) [Compound A-292, N-[5-(1H-benzimidazol-2-yl)-1-methyl-pyrazol-3-yl]-6-[2-(hydroxymethyl)-6-methyl-morpholin-4-yl]pyridine-3-carboxamide] |
| 6.52 to 7.00 | CC1CN(c2ccc(C(=O)Nc3cc(-c4nc5ccccc5[nH]4)n(C)n3)cn2)CC(CO)O1 (single isomer, unassigned) [Compound A-293, N-[5-(1H-benzimidazol-2-yl)-1-methyl-pyrazol-3-yl]-6-[2-(hydroxymethyl)-6-methyl-morpholin-4-yl]pyridine-3-carboxamide] |
| > 7.00 | CC1CN(c2ccc(C(=O)Nc3cc(-c4nc5ccccc5[nH]4)n(C)n3)cn2)CC(CO)O1 (single isomer, unassigned) [Compound A-294, N-[5-(1H-benzimidazol-2-yl)-1-methyl-pyrazol-3-yl]-6-[2-(hydroxymethyl)-6-methyl-morpholin-4-yl]pyridine-3-carboxamide] |
| > 7.00 | CC1CN(c2ccc(C(=O)Nc3cc(-c4nc5ccccc5[nH]4)n(C)n3)cn2)CC(CO)O1 (single isomer, unassigned) [Compound A-295, N-[5-(1H-benzimidazol-2-yl)-1-methyl-pyrazol-3-yl]-6-[2-(hydroxymethyl)-6-methyl-morpholin-4-yl]pyridine-3-carboxamide] |
| 6.00 to 6.52 | Cn1nc(NC(=O)c2ccc(N3CCC(O)C3)nc2)cc1-c1nc2ccccc2[nH]1 (stereo in doubt) [Compound A-227, N-[5-(1H-benzimidazol-2-yl)-1-methyl-pyrazol-3-yl]-6-[(3R)-3-hydroxy-pyrrolidin-1-yl]pyridine-3-carboxamide] |
| > 7.00 | CC(=O)N1CCN(c2ccc(C(=O)Nc3cc(-c4nc5ccccc5[nH]4)n(C)n3)cn2)CC1 [A-231, 6-(4-acetylpiperazin-1-yl)-N-[5-(1H-benzimidazol-2-yl)-1-methyl-pyrazol-3-yl]pyridine-3-carboxamide] |
| > 7.00 | CC(O)CN1CCN(c2ccc(C(=O)Nc3cc(-c4nc5ccccc5[nH]4)n(C)n3)cc2)CC1 (stereo not shown) [A-257, N-[5-(1H-benzimidazol-2-yl)-1-methyl-pyrazol-3-yl]-4-[4-(2-hydroxypropyl)piperazin-1-yl]benzamide] |
| < 6.00 | COc1ccc(C(=O)Nc2cc(C(=O)NC3COC3)[nH]n2)cc1Cl [Compound A-16, 3-[(3-chloro-4-methoxy-benzoyl)amino]-N-(oxetan-3-yl)-1H-pyrazole-5-carboxamide] |
| > 7.00 | CN1CCN(c2ccc(C(=O)Nc3cc(-c4nc5ccccc5[nH]4)[nH]n3)cn2)CC1 [Compound A-21, N-[5-(1H-benzimidazol-2-yl)-1H-pyrazol-3-yl]-6-(4-methyl-piperazin-1-yl)pyridine-3-carboxamide] |
| > 7.00 | COCCOc1ccc(C(=O)Nc2cc(-c3nc4ccccc4[nH]3)[nH]n2)cc1Cl [Compound A-29, N-[5-(1H-benzimidazol-2-yl)-1H-pyrazol-3-yl]-3-chloro-4-(2-methoxyethoxy)benzamide] |
| < 6.00 | COc1ccc(C(=O)Nc2cc(-c3nc4ccccc4[nH]3)no2)cc1Cl [Compound A-30, N-[3-(1H-benzimidazol-2-yl)isoxazol-5-yl]-3-chloro-4-methoxy-benzamide] |
| 6.52 to 7.00 | O=C(Nc1cc(-c2nc3ccccc3[nH]2)[nH]n1)c1ccc(OCCN2CCOCC2)c(Cl)c1 [Compound A-33, N-[5-(1H-benzimidazol-2-yl)-1H-pyrazol-3-yl]-3-chloro-4-(2-morpholinoethoxy)benzamide] |
| > 7.00 | O=C(Nc1cc(-c2nc3ccccc3[nH]2)[nH]n1)c1ccc(N2CCC(O)CC2)cc1 [Compound A-36, N-[5-(1H-benzimidazol-2-yl)-1H-pyrazol-3-yl]-4-(4-hydroxy-1-piperidyl)-benzamide] |
| > 7.00 | COCCNc1ccc(C(=O)Nc2cc(-c3nc4ccccc4[nH]3)[nH]n2)cc1Cl [Compound A-39, N-[5-(1H-benzimidazol-2-yl)-1H-pyrazol-3-yl]-3-chloro-4-(2-methoxyethylamino)benzamide] |
| > 7.00 | O=C(Nc1cc(-c2nc3ccccc3[nH]2)[nH]n1)c1ccc(N2CC[C@@H](O)C2)cc1 [Compound A-40, N-[5-(1H-benzimidazol-2-yl)-1H-pyrazol-3-yl]-4-[(3R)-3-hydroxypyrrolidin-1-yl]benzamide] |
| > 7.00 | O=C(Nc1cc(-c2nc3ccccc3[nH]2)[nH]n1)c1ccc(N2CCOCC2)nc1 [Compound A-41, N-[5-(1H-benzimidazol-2-yl)-1H-pyrazol-3-yl]-6-morpholino-pyridine-3-carboxamide] |

| pIC50 | SMILES |
| --- | --- |
| 6.52 to 7.00 | O=C(Nc1cc(-c2nc3ccccc3[nH]2)[nH]n1)c1ccc(N2CCC(O)CC2)nc1 [Compound A-42, N-[5-(1H-benzimidazol-2-yl)-1H-pyrazol-3-yl]-6-(4-hydroxy-1-piperidyl)pyridine-3-carboxamide] |
| > 7.00 | O=C(Nc1cc(-c2nc3ccccc3[nH]2)[nH]n1)c1ccc(N2CC[C@H](O)C2)cc1 [Compound A-43, N-[5-(1H-benzimidazol-2-yl)-1H-pyrazol-3-yl]-4-[(3S)-3-hydroxy-pyrrolidin-1-yl]benzamide] |
| > 7.00 | O=C(Nc1cc(-c2nc3ccccc3[nH]2)[nH]n1)c1ccc(N2CCC3(CCCO3)CC2)nc1 [Compound A-44, N-[5-(1H-benzimidazol-2-yl)-1H-pyrazol-3-yl]-6-(1-oxa-8-azaspiro[4.5]decan-8-yl)pyridine-3-carboxamide] |
| < 6.00 | O=C(Nc1cc(-c2nc3ccccc3[nH]2)[nH]n1)c1ccc(N2CC3(COC3)C2)nc1 [Compound A-45, N-[5-(1H-benzimidazol-2-yl)-1H-pyrazol-3-yl]-6-(2-oxa-6-azaspiro[3.3]heptan-6-yl)pyridine-3-carboxamide] |
| > 7.00 | CN(C)C1CCN(c2ccc(C(=O)Nc3cc(-c4nc5ccccc5[nH]4)[nH]n3)cn2)CC1 [Compound A-46, N-[5-(1H-benzimidazol-2-yl)-1H-pyrazol-3-yl]-6-[4-(dimethylamino)-1-piperidyl]pyridine-3-carboxamide] |
| > 7.00 | CC(C)(O)C1CCN(c2ccc(C(=O)Nc3cc(-c4nc5ccccc5[nH]4)[nH]n3)cn2)CC1 [Compound A-47, N-[5-(1H-benzimidazol-2-yl)-1H-pyrazol-3-yl]-6-[4-(1-hydroxy-1-methyl-ethyl)-1-piperidyl]pyridine-3-carboxamide] |
| < 6.00 | O=C(Nc1cc(-c2nc3ccccc3[nH]2)[nH]n1)c1ccc(N2CCC[C@H]2C(=O)O)nc1 [Compound A-48, (2S)-1-[5-[[5-(1H-benzimidazol-2-yl)-1H-pyrazol-3-yl]carbamoyl]-2-pyridyl]pyrrolidine-2-carboxylic acid] |
| 6.00 to 6.52 | O=C(Nc1cc(-c2nc3ccccc3[nH]2)[nH]n1)c1ccc(N2CCS(=O)(=O)CC2)nc1 [Compound A-49, N-[5-(1H-benzimidazol-2-yl)-1H-pyrazol-3-yl]-6-(1,1-dioxo-1,4-thiazinan-4-yl)pyridine-3-carboxamide] |
| > 7.00 | O=C(Nc1cc(-c2nc3ccccc3[nH]2)[nH]n1)c1ccc(OCCO)c(Cl)c1 [Compound A-50, N-[5-(1H-benzimidazol-2-yl)-1H-pyrazol-3-yl]-3-chloro-4-(2-hydroxy-ethoxy)benzamide] |
| < 6.00 | O=C(Nc1cc(-c2nc3ccccc3[nH]2)[nH]n1)c1ccc(N2CCC(C(=O)O)CC2)nc1 [Compound A-51, ammonium 1-[5-[[5-(1H-benzimidazol-2-yl)-1H-pyrazol-3-yl]carbamoyl]-2-pyridyl]piperidine-4-carboxylate] |
| 6.52 to 7.00 | O=C(Nc1cc(-c2nc3ccccc3[nH]2)[nH]n1)c1ccc(N2CCC[C@H]2CO)nc1 [Compound A-52, N-[5-(1H-benzimidazol-2-yl)-1H-pyrazol-3-yl]-6-[(2S)-2-(hydroxymethyl)-pyrrolidin-1-yl]pyridine-3-carboxamide] |
| > 7.00 | COCCCOc1ccc(C(=O)Nc2cc(-c3nc4ccccc4[nH]3)[nH]n2)cc1Cl [Compound A-53, N-[5-(1H-benzimidazol-2-yl)-1H-pyrazol-3-yl]-3-chloro-4-(3-methoxy-propoxy)benzamide] |
| 6.00 to 6.52 | O=C(Nc1cc(-c2nc3ccccc3[nH]2)[nH]n1)c1ccc(N2CC[C@H](O)C2)nc1 [Compound A-54, N-[5-(1H-benzimidazol-2-yl)-1H-pyrazol-3-yl]-6-[(3S)-3-hydroxy-pyrrolidin-1-yl]pyridine-3-carboxamide] |
| 6.00 to 6.52 | O=C(Nc1cc(-c2nc3ccccc3[nH]2)[nH]n1)c1ccc(N2CC[C@@H](O)C2)nc1 [Compound A-55, N-[5-(1H-benzimidazol-2-yl)-1H-pyrazol-3-yl]-6-[(3R)-3-hydroxypyrrolidin-1-yl]pyridine-3-carboxamide] |
| < 6.00 | CCOC(=O)[C@@H]1CCCN1c1ccc(C(=O)Nc2cc(-c3nc4ccccc4[nH]3)[nH]n2)cn1 [Compound A-56, ethyl (2S)-1-[5-[[5-(1H-benzimidazol-2-yl)-1H-pyrazol-3-yl]carbamoyl]-2-pyridyl]pyrrolidine-2-carboxylate] |
